Key:
HVA calcium channels = format: cell-based, rat; conditions: n=4; 1 µM
[1] = tested on: Female Sprague-Dawley rats; conditions: rat, in vivo

Substance | calcium current amplitudes, % of control amplitudes (HVA calcium channels) [%] | bladder capacity versus irritation control, Dunn's MCT [1] | directly measured bladder capacity, % of control values [1] [%] | effects on other micturition parameters, such as voiding efficiency [1] | intermicturition interval versus irritation control (AA/Veh 3), Dunn's multiple comparison test [1] | intermicturition interval, % of pre-irritation control values [1] [%]
Omega-conotoxin GVIA | 72.8±1.6 | – | – | – | – | –
ω-Conotoxin MVIIA | – | significantly different than irritation control | 69 | no untoward effects on other micturition parameters | significantly different than irritation control | 81

Reference: patent publication US7223754B2, “Thiazolidinone, oxazolidinone, and imidazolone derivatives for treating lower urinary tract and related disorders” (Dynogen Pharmaceuticals, Inc., priority 2003, dated 2007)
